Measured values as given in ChEMBL document CHEMBL5247620, “Lupane derivatives containing various aryl substituents in the position 3 have selective cytostatic effect in leukemic cancer cells including resistant phenotypes” (Eur J Med Chem, 2022).

Tests used:
K562 = assay: Cytotoxicity against human K562 cells assessed as inhibition of cell growth incubated for 72 hrs by MTS assay; type: functional, cell-based; conditions: K562, 72 h
[1] = Cytotoxicity against human MRC5 cells assessed as inhibition of cell growth incubated for 72 hrs by MTS assay; type: toxicity, cell-based
A549 = assay: Cytotoxicity against human A549 cells assessed as inhibition of cell growth incubated for 72 hrs by MTS assay; type: functional, cell-based; conditions: A549, 72 h
[2] = Cytotoxicity against human K562-Tax cells assessed as inhibition of cell growth incubated for 72 hrs by MTS assay; type: functional, cell-based
[3] = Cytotoxicity against human BJ cells assessed as inhibition of cell growth incubated for 72 hrs by MTS assay; type: toxicity, cell-based
U2OS = assay: Cytotoxicity against human U2OS cells assessed as inhibition of cell growth incubated for 72 hrs by MTS assay; type: functional, cell-based
CCRF-CEM = assay: Cytotoxicity against human CCRF-CEM cells assessed as inhibition of cell growth incubated for 72 hrs by MTS assay; type: functional, cell-based
[4] = Cytotoxicity against human p53HCT116 cells assessed as inhibition of cell growth incubated for 72 hrs by MTS assay; type: functional, cell-based; conditions: p53HCT116, 72 h
HCT-116 = assay: Cytotoxicity against human HCT-116 cells assessed as inhibition of cell growth incubated for 72 hrs by MTS assay; type: functional, cell-based; conditions: HCT-116, 72 h
CEM-DNR = assay: Cytotoxicity against human CEM-DNR cells assessed as inhibition of cell growth incubated for 72 hrs by MTS assay; type: functional, cell-based

C=C(C)[C@@H]1CC[C@]2(C(=O)O)CC[C@]3(C)[C@H](CC[C@@H]4[C@@]5(C)CC=C(c6cccc(C(F)(F)F)c6)C(C)(C)[C@@H]5CC[C@]43C)[C@@H]12
IC50 (K562): > 50 µM | IC50 at 72 h [1]: 50 µM | IC50 (A549): 46 µM | IC50 [2]: 30 µM | IC50 at 72 h [3]: > 50 µM | IC50 (U2OS): 45 µM | IC50 (CCRF-CEM): 19 µM | IC50 [4]: > 50 µM | IC50 (HCT-116): 37 µM | IC50 (CEM-DNR): 37 µM

C=C(C)[C@@H]1CC[C@]2(C(=O)O)CC[C@]3(C)[C@H](CC[C@@H]4[C@@]5(C)CC=C(c6ccc(OC)cc6)C(C)(C)[C@@H]5CC[C@]43C)[C@@H]12
IC50 (K562): 50 µM | IC50 at 72 h [1]: 46 µM | IC50 (A549): 43 µM | IC50 [2]: 50 µM | IC50 at 72 h [3]: 50 µM | IC50 (U2OS): 42 µM | IC50 (CCRF-CEM): 23 µM | IC50 [4]: 50 µM | IC50 (HCT-116): 50 µM | IC50 (CEM-DNR): 50 µM

C=C(C)[C@@H]1CC[C@]2(C(=O)O)CC[C@]3(C)[C@H](CC[C@@H]4[C@@]5(C)CC=C(c6cccc(OC)c6)C(C)(C)[C@@H]5CC[C@]43C)[C@@H]12
IC50 (K562): > 50 µM | IC50 at 72 h [1]: > 50 µM | IC50 (A549): 45 µM | IC50 [2]: 29 µM | IC50 at 72 h [3]: > 50 µM | IC50 (U2OS): 35 µM | IC50 (CCRF-CEM): 15 µM | IC50 [4]: > 50 µM | IC50 (HCT-116): 31 µM | IC50 (CEM-DNR): 31 µM

C=C(C)[C@@H]1CC[C@]2(C(=O)O)CC[C@]3(C)[C@H](CC[C@@H]4[C@@]5(C)CC=C(c6ccc(N)cc6)C(C)(C)[C@@H]5CC[C@]43C)[C@@H]12
IC50 (K562): 17 µM | IC50 at 72 h [1]: > 50 µM | IC50 (A549): 26 µM | IC50 [2]: 19 µM | IC50 at 72 h [3]: > 50 µM | IC50 (U2OS): 22 µM | IC50 (CCRF-CEM): 3.8 µM | IC50 [4]: 24 µM | IC50 (HCT-116): 25 µM | IC50 (CEM-DNR): 11 µM

C=C(C)[C@@H]1CC[C@]2(C(=O)O)CC[C@]3(C)[C@H](CC[C@@H]4[C@@]5(C)CC=C(c6ccc([N+](=O)[O-])cc6)C(C)(C)[C@@H]5CC[C@]43C)[C@@H]12
IC50 (K562): > 50 µM | IC50 at 72 h [1]: > 50 µM | IC50 (A549): > 50 µM | IC50 [2]: > 50 µM | IC50 at 72 h [3]: > 50 µM | IC50 (U2OS): 42 µM | IC50 (CCRF-CEM): 26 µM | IC50 [4]: > 50 µM | IC50 (HCT-116): > 50 µM | IC50 (CEM-DNR): > 50 µM

C=C(C)[C@@H]1CC[C@]2(C(=O)O)CC[C@]3(C)[C@H](CC[C@@H]4[C@@]5(C)CC=C(c6ccccc6C(=O)OC)C(C)(C)[C@@H]5CC[C@]43C)[C@@H]12
IC50 (K562): 26 µM | IC50 at 72 h [1]: 22 µM | IC50 (A549): 26 µM | IC50 [2]: 29 µM | IC50 at 72 h [3]: 38 µM | IC50 (U2OS): 25 µM | IC50 (CCRF-CEM): 15 µM | IC50 [4]: 23 µM | IC50 (HCT-116): 27 µM | IC50 (CEM-DNR): 27 µM

C=C(C)[C@@H]1CC[C@]2(C(=O)O)CC[C@]3(C)[C@H](CC[C@@H]4[C@@]5(C)CC=C(c6ccccc6O)C(C)(C)[C@@H]5CC[C@]43C)[C@@H]12
IC50 (K562): > 50 µM | IC50 at 72 h [1]: 31 µM | IC50 (A549): 41 µM | IC50 [2]: 15 µM | IC50 at 72 h [3]: > 50 µM | IC50 (U2OS): 26 µM | IC50 (CCRF-CEM): 10 µM | IC50 [4]: > 50 µM | IC50 (HCT-116): 30 µM | IC50 (CEM-DNR): 30 µM

C=C(C)[C@@H]1CC[C@]2(C(=O)O)CC[C@]3(C)[C@H](CC[C@@H]4[C@@]5(C)CC=C(c6ccccc6N)C(C)(C)[C@@H]5CC[C@]43C)[C@@H]12
IC50 (K562): 46 µM | IC50 at 72 h [1]: > 50 µM | IC50 (A549): 24 µM | IC50 [2]: 44 µM | IC50 at 72 h [3]: > 50 µM | IC50 (U2OS): 27 µM | IC50 (CCRF-CEM): 11 µM | IC50 [4]: 18 µM | IC50 (HCT-116): 46 µM | IC50 (CEM-DNR): 46 µM

C=C(C)[C@@H]1CC[C@]2(C(=O)O)CC[C@]3(C)[C@H](CC[C@@H]4[C@@]5(C)CC=C(c6ccccc6OC)C(C)(C)[C@@H]5CC[C@]43C)[C@@H]12
IC50 (K562): 30 µM | IC50 at 72 h [1]: 27 µM | IC50 (A549): 42 µM | IC50 [2]: 23 µM | IC50 at 72 h [3]: 48 µM | IC50 (U2OS): 28 µM | IC50 (CCRF-CEM): 16 µM | IC50 [4]: 23 µM | IC50 (HCT-116): 24 µM | IC50 (CEM-DNR): 24 µM

C=C(C)[C@@H]1CC[C@]2(C(=O)OCc3ccccc3)CC[C@]3(C)[C@H](CC[C@@H]4[C@@]5(C)CC=C(OS(=O)(=O)C(F)(F)F)C(C)(C)[C@@H]5CC[C@]43C)[C@@H]12
IC50 (K562): 23 µM | IC50 at 72 h [1]: 27 µM | IC50 (A549): 20 µM | IC50 [2]: 18 µM | IC50 at 72 h [3]: 40 µM | IC50 (U2OS): 29 µM | IC50 (CCRF-CEM): 14 µM | IC50 [4]: 29 µM | IC50 (HCT-116): 22 µM | IC50 (CEM-DNR): 22 µM

C=C(C)[C@@H]1CC[C@]2(C(=O)O)CC[C@]3(C)[C@H](CC[C@@H]4[C@@]5(C)CC=C(c6cccc(C(=O)OC)c6)C(C)(C)[C@@H]5CC[C@]43C)[C@@H]12
IC50 (K562): > 50 µM | IC50 at 72 h [1]: 44 µM | IC50 (A549): > 50 µM | IC50 [2]: 43 µM | IC50 at 72 h [3]: > 50 µM | IC50 (U2OS): 8.8 µM | IC50 (CCRF-CEM): 17 µM | IC50 [4]: 41 µM | IC50 (HCT-116): 50 µM | IC50 (CEM-DNR): > 50 µM

C=C(C)[C@@H]1CC[C@]2(C(=O)O)CC[C@]3(C)[C@H](CC[C@@H]4[C@@]5(C)CC=C(c6cccc([N+](=O)[O-])c6)C(C)(C)[C@@H]5CC[C@]43C)[C@@H]12
IC50 (K562): 45 µM | IC50 at 72 h [1]: 48 µM | IC50 (A549): 34 µM | IC50 [2]: 24 µM | IC50 at 72 h [3]: 50 µM | IC50 (U2OS): 46 µM | IC50 (CCRF-CEM): 18 µM | IC50 [4]: 47 µM | IC50 (HCT-116): 48 µM | IC50 (CEM-DNR): 43 µM

C=C(C)[C@@H]1CC[C@]2(C(=O)O)CC[C@]3(C)[C@H](CC[C@@H]4[C@@]5(C)CC=C(c6ccc(C(=O)OC)cc6)C(C)(C)[C@@H]5CC[C@]43C)[C@@H]12
IC50 (K562): 48 µM | IC50 at 72 h [1]: 46 µM | IC50 (A549): 47 µM | IC50 [2]: 7.2 µM | IC50 at 72 h [3]: 47 µM | IC50 (U2OS): 46 µM | IC50 (CCRF-CEM): 46 µM | IC50 [4]: 47 µM | IC50 (HCT-116): 47 µM | IC50 (CEM-DNR): 47 µM
